In patent publication US4496584A, “Amidine derivatives with anti-complement activity” (Torii & Co. Ltd., priority 1981, dated 1985):
Read-outs that look alike come from different tables or passages of the source.

Key:
thrombin = thrombin (Bos taurus, UniProt P00735); experiment: Enzyme inhibition, TAME hydrolysis, thrombin (method of Muramatsu et al.); assay type: biochemical
Protocol: (§1) The enzyme inhibitory activity was determined according to the method of Muramatsu et al. [M. Muramatsu, T. Onishi, S. Makino, Y. Hayashi and S. Fujii, J. Biochem., 58, 214 (1965)]. The data summarized in Table 1 are expressed in terms of molar concentration (ID50) of the test compound which inhibits 50% of the activity of each enzyme to hydrolyze TAME (tosylarginine methyl ester).

trypsin = target: T1, trypsin (Bos taurus, UniProt P00760); experiment: Enzyme inhibition, TAME hydrolysis, trypsin (method of Muramatsu et al.); assay type: biochemical; settings: hydrolysis of TAME; read-out: ID50, trypsin
T1 sequence (P00760 24-246): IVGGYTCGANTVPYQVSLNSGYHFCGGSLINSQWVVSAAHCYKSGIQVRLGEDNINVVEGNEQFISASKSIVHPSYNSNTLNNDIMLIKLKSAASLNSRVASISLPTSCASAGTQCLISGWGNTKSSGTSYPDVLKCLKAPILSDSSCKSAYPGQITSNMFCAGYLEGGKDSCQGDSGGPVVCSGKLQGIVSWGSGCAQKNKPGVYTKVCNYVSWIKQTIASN
Protocol: as §1

plasmin = plasmin (Homo sapiens, UniProt P00747); experiment: Enzyme inhibition, TAME hydrolysis, plasmin (method of Muramatsu et al.); assay type: biochemical; settings: read-out: ID50, plasmin
Chain of plasmin (P00747 581-810 limits assumed): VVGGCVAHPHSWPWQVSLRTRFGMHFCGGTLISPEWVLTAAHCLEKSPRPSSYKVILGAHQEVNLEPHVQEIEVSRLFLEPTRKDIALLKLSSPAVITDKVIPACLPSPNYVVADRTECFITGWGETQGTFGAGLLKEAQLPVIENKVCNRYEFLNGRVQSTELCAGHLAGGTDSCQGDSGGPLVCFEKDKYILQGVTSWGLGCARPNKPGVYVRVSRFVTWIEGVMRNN
Chain of plasmin (P00747 97-580 partner limits assumed): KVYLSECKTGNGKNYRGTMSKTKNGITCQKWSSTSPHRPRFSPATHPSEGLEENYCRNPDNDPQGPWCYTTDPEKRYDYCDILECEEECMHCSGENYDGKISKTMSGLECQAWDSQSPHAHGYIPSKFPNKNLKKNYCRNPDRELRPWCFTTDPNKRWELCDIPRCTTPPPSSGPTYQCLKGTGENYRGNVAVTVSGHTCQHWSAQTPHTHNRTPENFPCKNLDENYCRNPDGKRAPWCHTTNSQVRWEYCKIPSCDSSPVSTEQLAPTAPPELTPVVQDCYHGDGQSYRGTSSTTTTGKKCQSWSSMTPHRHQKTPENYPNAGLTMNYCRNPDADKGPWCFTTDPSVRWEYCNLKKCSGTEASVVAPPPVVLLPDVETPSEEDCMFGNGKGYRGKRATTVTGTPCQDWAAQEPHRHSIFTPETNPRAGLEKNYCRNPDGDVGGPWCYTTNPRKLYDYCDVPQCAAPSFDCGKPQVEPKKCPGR
Protocol: as §1

[1] = tested on: complement mediated hemolysis; experiment: Inhibition of complement mediated hemolysis (method of Baker et al.); assay type: cell-based
Cls = target: T2, Cls (Homo sapiens, UniProt P09871); experiment: Anti-Cl esterase activity, Cls (ATEE hydrolysis, method of Okamura et al.); assay type: biochemical; settings: read-out: Anti-C1 activity, Cls (ID50)
T2 sequence (P09871 438-688 limits assumed): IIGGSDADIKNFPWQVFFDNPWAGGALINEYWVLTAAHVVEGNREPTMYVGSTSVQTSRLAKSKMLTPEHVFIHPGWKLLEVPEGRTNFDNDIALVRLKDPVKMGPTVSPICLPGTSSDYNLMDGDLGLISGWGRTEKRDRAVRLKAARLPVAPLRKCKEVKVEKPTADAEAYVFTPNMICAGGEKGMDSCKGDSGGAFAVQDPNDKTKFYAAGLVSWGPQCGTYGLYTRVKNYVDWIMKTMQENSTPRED
T2 sequence (P09871 16-437 partner limits assumed): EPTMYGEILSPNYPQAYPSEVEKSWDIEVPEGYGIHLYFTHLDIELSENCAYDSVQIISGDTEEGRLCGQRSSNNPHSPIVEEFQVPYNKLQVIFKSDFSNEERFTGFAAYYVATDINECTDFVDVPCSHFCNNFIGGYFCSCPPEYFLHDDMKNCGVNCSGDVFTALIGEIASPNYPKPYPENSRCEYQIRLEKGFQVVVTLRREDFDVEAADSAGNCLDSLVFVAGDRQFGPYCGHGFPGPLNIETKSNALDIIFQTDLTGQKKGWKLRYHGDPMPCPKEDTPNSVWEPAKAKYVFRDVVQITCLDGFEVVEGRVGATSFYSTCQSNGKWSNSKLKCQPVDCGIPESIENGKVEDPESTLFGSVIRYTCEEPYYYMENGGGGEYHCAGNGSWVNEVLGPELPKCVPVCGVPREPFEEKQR
Protocol: (§2) The anti-Cl esterase (Clr, Cls) activity was determined according to the method of Okamura et al. [K. Okamura, M. Muramatsu and S. Fujii, Biochem. Biophys. Acta, 295, 252-257 (1973)]. The inhibition of complement mediated hemolysis (percent) was determined according to the method of Baker et al. [B. R. Baker and E. H. Erickson, J. Med. Chem., 12, 408-414 (1969)]. The figures in Table 2 have the following meanings:
Cls: Molar concentration of the test compound which inhibits 50% of the ability of Cls to hydrolyse ATEE (acetyltyrosin ethyl ester) (ID50).

Clr = target: T3, Clr (Homo sapiens, UniProt P00736); experiment: Anti-Cl esterase activity, Clr (AAME hydrolysis, method of Okamura et al.); assay type: biochemical; settings: read-out: Anti-C1 activity, Clr (ID50)
T3 sequence (P00736 464-705 limits assumed): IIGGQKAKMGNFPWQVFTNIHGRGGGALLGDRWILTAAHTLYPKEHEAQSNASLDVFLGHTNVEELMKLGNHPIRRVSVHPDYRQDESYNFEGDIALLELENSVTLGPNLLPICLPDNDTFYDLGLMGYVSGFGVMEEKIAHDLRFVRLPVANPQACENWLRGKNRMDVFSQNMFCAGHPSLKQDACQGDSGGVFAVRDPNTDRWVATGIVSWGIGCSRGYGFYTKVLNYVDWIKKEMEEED
T3 sequence (P00736 18-463 partner limits assumed): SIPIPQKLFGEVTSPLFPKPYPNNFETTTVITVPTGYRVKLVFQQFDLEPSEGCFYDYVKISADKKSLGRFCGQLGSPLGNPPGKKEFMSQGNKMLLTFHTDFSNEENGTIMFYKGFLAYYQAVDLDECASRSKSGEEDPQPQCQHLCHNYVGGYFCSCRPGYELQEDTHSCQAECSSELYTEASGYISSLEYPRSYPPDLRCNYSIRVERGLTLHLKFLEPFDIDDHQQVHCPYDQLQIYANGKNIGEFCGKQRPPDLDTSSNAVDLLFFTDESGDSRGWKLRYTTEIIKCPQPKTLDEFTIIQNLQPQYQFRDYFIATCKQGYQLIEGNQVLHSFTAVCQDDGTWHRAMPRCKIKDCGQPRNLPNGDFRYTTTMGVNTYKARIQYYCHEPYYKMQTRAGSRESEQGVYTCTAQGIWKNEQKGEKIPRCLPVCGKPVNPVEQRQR
Protocol: as §2
Clr: Molar concentration of the test compound which inhibits 50% of the ability of Clr to hydrolyse AAME (acetylarginin methyl ester) (ID50).

kallikrein = experiment: Enzyme inhibition, TAME hydrolysis, kallikrein (method of Muramatsu et al.); assay type: biochemical; settings: read-out: ID50, kallikrein
Protocol: as §1

[2] = Toxicity, lethal dose (LD50); settings: mouse, in vivo

Row | SMILES | IC50 (thrombin) | IC50 (trypsin) | IC50 (plasmin) | Inhibition of complement mediated hemolysis (%) ([1]; concentration 1 × 10^-4) | Inhibition of complement mediated hemolysis (%) ([1]; concentration 1 × 10^-5) | Inhibition of complement mediated hemolysis (%) ([1]; concentration 1 × 10^-6) | Inhibition of complement mediated hemolysis (%) ([1]; concentration 1 × 10^-7) | IC50 (Cls) | IC50 (Clr) | IC50 (kallikrein) | LD50 ([2]; ip, read-out: LD50 Mouse IP) | LD50 ([2]; po, read-out: LD50 Mouse PO) | inhibition at 10 µM (thrombin; 1×10^-5 M, hydrolysis of TAME, read-out: percentage inhibition, thrombin (figure in parentheses))
1 | N=C(N)c1ccc2cc(OC(=O)C3CC3)ccc2c1 [Compound No. 10, 6-amidino-2-naphthyl cyclopropanecarboxylate] | 3 µM | 2 µM | 4 µM | 100% | 92% | 18% | 0% | 0.3 µM | 0.2 µM | 100 µM | – | – | –
2 | N=C(N)c1ccc2cc(OC(=O)CCCC3CCCCC3)ccc2c1 [Compound No. 15, 6-amidino-2-naphthyl 4-cyclohexylbutyrate] | > 10 µM | – | – | – | – | – | – | – | – | > 10 µM | – | – | –
3 | CC(=O)Oc1ccc2cc(C(=N)N)ccc2c1 [Compound No. 1, 6-amidino-2-naphthyl acetate] | 400 µM | 80 µM | 200 µM | 86% | 15% | 0% | 0% | 20 µM | 10 µM | 500 µM | 200 mg/kg | 2500 mg/kg | –
4 | CCCC(=O)Oc1ccc2cc(C(=N)N)ccc2c1 [Compound No. 2, 6-amidino-2-naphthyl n-butyrate] | 20 µM | 20 µM | 30 µM | 96% | 40% | 1% | 0% | 20 µM | 9 µM | 700 µM | 200 mg/kg | 2500 mg/kg | –
5 | N=C(N)c1ccc2cc(OC(=O)CC3C=CCC3)ccc2c1 (centres unmarked) [Compound No. 13, 6-amidino-2-naphthyl 2-cyclopenteneacetate] | – | – | – | 39% | 21% | 10% | 10% | – | – | – | – | – | –
6 | N=C(N)c1ccc2cc(OC(=O)C3CCCCC3)ccc2c1 [Compound No. 12, 6-amidino-2-naphthylcyclohexanecarboxylate] | 40 µM | 20 µM | 10 µM | 45% | 10% | 11% | 0% | 3 µM | 2 µM | > 10 µM | – | – | –
7 | C/C=C/C=C/C(=O)Oc1ccc2cc(C(=N)N)ccc2c1 [Compound No. 9, 6-amidino-2-naphthyl sorbate] | – | – | – | 94% | 89% | 37% | 14% | – | – | – | – | – | –
8 | CCCCCC(=O)Oc1ccc2cc(C(=N)N)ccc2c1 [compound 4, 6-amidino-2-naphthyl caproate] | 3000 µM | 20 µM | 20 µM | 83% | 12% | 5% | 0% | 4 µM | 5 µM | 300 µM | – | – | –
9 | N=C(N)c1ccc2cc(OC(=O)CCCCCNC(=O)OCc3ccccc3)ccc2c1 [Compound No. 16, 6-amidino-2-naphthyl ε-benzyloxycarbonylaminocaproate] | 100 µM | 10 µM | 3 µM | 92% | 15% | 0% | 0% | 4 µM | 4 µM | 40 µM | – | – | –
10 | CC(C)CC(=O)Oc1ccc2cc(C(=N)N)ccc2c1 [Compound No. 3, 6-amidino-2-naphthyl isovalerate] | 80 µM | 30 µM | 30 µM | 95% | 37% | 0% | 0% | 2 µM | 2 µM | 500 µM | – | – | –
11 | N=C(N)NCCCCCC(=O)Oc1ccc2cc(C(=N)N)ccc2c1 [Compound No. 18, 6-amidino-2-naphthyl ε-guanidinocaproate] | 40 µM | 10 µM | 30 µM | 92% | 30% | 3% | 0% | 9 µM | 70 µM | > 10 µM | – | – | –
12 | N=C(N)c1ccc2cc(OC(=O)CCCCCN)ccc2c1 [Compound No. 17, 6-amidino-2-naphthyl ε-aminocaproate] | 600 µM | 200 µM | 40 µM | – | – | – | – | – | – | 50 µM | – | – | –
13 | CCCCCCCCCCCC(=O)Oc1ccc2cc(C(=N)N)ccc2c1 [Compound No. 6, 6-amidino-2-naphthyl laurate] | – | – | – | 13% | 13% | 27% | 15% | – | – | – | – | – | –
14 | N=C(N)c1ccc2cc(OC(=O)[C@H]3CC[C@H](CNC(=O)OCc4ccccc4)CC3)ccc2c1 [compound 19, 6-amidino-2-naphtyl trans-4-benzyloxycarbonylaminomethylcyclohexanecarboxylate] | 30 µM | 1 µM | 0.8 µM | 55% | 88% | 25% | 6% | 0.4 µM | 0.4 µM | 6 µM | – | – | –
15 | CCCCCCCCCC(=O)Oc1ccc2cc(C(=N)N)ccc2c1 [Compound No. 5, 6-amidino-2-naphthyl caprate] | – | 6 µM | 10 µM | – | – | – | – | – | – | 100 µM | – | – | 26%
